According to BindingDB's records for doi:10.1016/s0026-0495(96)90072-4 (Sandoz Pharma, 1996):
One block for each molecule: values may come before it. Positions of bridges follow the written chain, without caps; N, C: chain ends. Non-standard residues stand in square brackets, D forms with d. Residues, ends and D or L forms follow the SMILES beside them. *: point of attachment. d1Nal = N[C@H](Cc1cccc2ccccc12)C(=O)O; Asu = N[C@@H](CCCCCC(=O)O)C(=O)O; Nphe = O=C(O)CNCc1ccccc1; Ahp = NCCCCCCC(=O)O; Bn = c1ccc(C*)cc1

What was measured:
[1] = target: Somatostatin receptor type 5 (Homo sapiens, UniProt P35346)
Sequence of Somatostatin receptor type 5 (P35346 whole entry): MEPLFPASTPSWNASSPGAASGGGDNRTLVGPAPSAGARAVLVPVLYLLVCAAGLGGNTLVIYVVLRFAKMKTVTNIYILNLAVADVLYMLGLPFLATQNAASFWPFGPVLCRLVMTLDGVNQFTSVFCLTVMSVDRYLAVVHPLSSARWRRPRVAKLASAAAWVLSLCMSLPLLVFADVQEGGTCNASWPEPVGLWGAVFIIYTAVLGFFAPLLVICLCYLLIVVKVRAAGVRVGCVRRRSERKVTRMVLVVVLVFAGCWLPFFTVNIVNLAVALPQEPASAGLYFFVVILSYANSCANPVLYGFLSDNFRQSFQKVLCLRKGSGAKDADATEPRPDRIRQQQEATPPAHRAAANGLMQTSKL

[2] = target: Somatostatin receptor type 3 (Homo sapiens, UniProt P32745)
Sequence of Somatostatin receptor type 3 (P32745 whole entry): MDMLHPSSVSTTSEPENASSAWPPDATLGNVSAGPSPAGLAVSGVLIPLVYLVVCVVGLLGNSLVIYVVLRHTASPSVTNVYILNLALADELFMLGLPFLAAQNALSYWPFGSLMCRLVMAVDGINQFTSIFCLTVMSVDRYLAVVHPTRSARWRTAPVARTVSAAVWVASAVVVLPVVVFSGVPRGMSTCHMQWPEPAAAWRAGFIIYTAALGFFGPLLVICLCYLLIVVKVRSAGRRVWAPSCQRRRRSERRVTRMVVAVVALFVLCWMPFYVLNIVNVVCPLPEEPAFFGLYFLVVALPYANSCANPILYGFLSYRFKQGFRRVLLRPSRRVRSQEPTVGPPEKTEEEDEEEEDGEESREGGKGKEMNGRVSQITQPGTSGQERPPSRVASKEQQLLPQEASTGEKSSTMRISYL

[3] = target: Somatostatin receptor type 1 (Homo sapiens, UniProt P30872)
Sequence of Somatostatin receptor type 1 (P30872 whole entry): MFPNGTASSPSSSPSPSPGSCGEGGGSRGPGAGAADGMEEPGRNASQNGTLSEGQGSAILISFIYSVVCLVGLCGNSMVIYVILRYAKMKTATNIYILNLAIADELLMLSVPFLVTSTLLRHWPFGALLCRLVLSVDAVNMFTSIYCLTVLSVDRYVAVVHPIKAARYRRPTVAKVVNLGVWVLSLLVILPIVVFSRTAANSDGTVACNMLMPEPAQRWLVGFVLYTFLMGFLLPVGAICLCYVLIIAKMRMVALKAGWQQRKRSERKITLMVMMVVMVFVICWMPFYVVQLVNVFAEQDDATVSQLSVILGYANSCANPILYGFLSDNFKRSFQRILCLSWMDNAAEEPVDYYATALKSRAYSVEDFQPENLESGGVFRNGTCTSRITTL

[4] = target: Somatostatin receptor type 2 (Homo sapiens, UniProt P30874)
Sequence of Somatostatin receptor type 2 (P30874 whole entry): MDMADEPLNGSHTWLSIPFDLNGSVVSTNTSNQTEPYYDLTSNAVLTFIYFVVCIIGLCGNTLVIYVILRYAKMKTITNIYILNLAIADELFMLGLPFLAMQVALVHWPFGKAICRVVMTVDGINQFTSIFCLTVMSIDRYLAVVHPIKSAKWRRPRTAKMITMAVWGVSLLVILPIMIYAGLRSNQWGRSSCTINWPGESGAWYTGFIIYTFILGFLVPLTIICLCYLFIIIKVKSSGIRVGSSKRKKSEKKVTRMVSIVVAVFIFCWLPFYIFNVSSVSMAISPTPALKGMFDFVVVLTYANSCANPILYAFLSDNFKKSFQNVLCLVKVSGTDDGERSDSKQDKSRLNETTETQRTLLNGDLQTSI

[5] = target: Somatostatin receptor type 4 (Homo sapiens, UniProt P31391)
Sequence of Somatostatin receptor type 4 (P31391 whole entry): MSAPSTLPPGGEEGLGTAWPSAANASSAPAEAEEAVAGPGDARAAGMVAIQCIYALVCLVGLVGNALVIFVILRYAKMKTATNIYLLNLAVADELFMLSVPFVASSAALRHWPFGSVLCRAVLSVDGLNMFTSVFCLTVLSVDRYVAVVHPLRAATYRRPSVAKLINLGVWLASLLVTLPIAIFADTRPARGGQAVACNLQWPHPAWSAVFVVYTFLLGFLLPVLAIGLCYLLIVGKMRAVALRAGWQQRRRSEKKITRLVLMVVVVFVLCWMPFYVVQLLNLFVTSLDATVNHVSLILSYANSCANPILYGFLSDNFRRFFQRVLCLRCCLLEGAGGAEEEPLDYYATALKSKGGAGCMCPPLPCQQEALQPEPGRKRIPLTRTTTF

Structure (SMILES): C[C@@H](O)[C@@H]1NC(=O)[C@H](CCCCN)NC(=O)[C@@H](Cc2c[nH]c3ccccc23)NC(=O)[C@H](Cc2ccccc2)NC(=O)[C@@H]2CCCN2C(=O)[C@H](Cc2ccccc2)NC1=O (cyclo(PF[dW]KTF))
- Ki [1]: 39.8 nM
- Ki [2]: 126 nM
- Ki [3]: 631 nM
- Ki [4]: 0.63 nM
- Ki [5]: 100 nM

Structure (SMILES): C[C@@H](OCc1ccccc1)[C@@H]1NC(=O)[C@H](CCCCN)NC(=O)[C@@H](Cc2c[nH]c3ccccc23)NC(=O)[C@H](Cc2ccccc2)NC(=O)CCCCCCNC1=O [c[Aha-Phe-D-Trp-Lys-Thr(Bzl)]] (cyclo([Ahp]F[dW]KT(Bn)))
- Ki [1]: 316 nM
- Ki [2]: 398 nM
- Ki [3]: 398 nM
- Ki [4]: 2510 nM
- Ki [5]: 3160 nM

Structure (SMILES): CC(C)[C@@H]1NC(=O)[C@H](CCCCN)NC(=O)[C@@H](Cc2c[nH]c3ccccc23)NC(=O)[C@H](Cc2ccc(O)cc2)NC(=O)[C@@H](NC(=O)[C@H](N)Cc2ccc3ccccc3c2)CSSC[C@@H](C(=O)N[C@H](C(N)=O)[C@@H](C)O)NC1=O [3-(2-Naphtyl)-D-Ala-L-Cys(1)-L-Tyr-D-Trp-L-Lys-L-Val-L-Cys(1)-L-Thr-NH2]
- Ki [2]: 63.1 nM
- Ki [4]: 0.5 nM

Structure (SMILES): CC(C)[C@H](NC(=O)[C@H](CCCCN)NC(=O)[C@@H](Cc1c[nH]c2ccccc12)NC(=O)[C@H](Cc1ccc(O)cc1)NC(=O)[C@H](Cc1ccccc1)NC(=O)[C@H](N)Cc1ccccc1)C(=O)N[C@@H](Cc1ccccc1)C(=O)N[C@H](Cc1cccc2ccccc12)C(N)=O [BIM 23056] (H-[dF]FY[dW]KVF[d1Nal]-NH2)
- Ki [1]: 12.6 nM
- Ki [2]: 100 nM
- Ki [3]: 100 nM
- Ki [4]: 200 nM
- Ki [5]: 100 nM

Structure (SMILES): CC(C)[C@@H]1NC(=O)[C@H](CCCCN)NC(=O)[C@@H](Cc2c[nH]c3ccccc23)NC(=O)[C@H](Cc2ccc(O)cc2)NC(=O)[C@@H](NC(=O)[C@H](N)Cc2ccccc2)CSSC[C@@H](C(=O)N[C@@H](Cc2c[nH]c3ccccc23)C(N)=O)NC1=O [CAS_71306] (H-[dF]CY[dW]KVCW-NH2; disulfide 2-7)
- Ki [4]: 0.07 nM

Structure (SMILES): C[C@@H](O)[C@H](NC(=O)[C@H](Cc1ccccc1)NC(=O)[C@@H](NC(=O)[C@H](CCCCN)NC(=O)[C@@H](Cc1c[nH]c2ccccc12)NC(=O)[C@H](Cc1ccccc1)NC(=O)[C@H](Cc1ccccc1)NC(=O)[C@H](N)Cc1ccccc1)[C@@H](C)O)C(N)=O [CAS_133073-82-2] (H-[dF]FF[dW]KTFT-NH2)
- Ki [1]: 1.58 nM
- Ki [2]: 1.99 nM
- Ki [3]: 6.3 nM
- Ki [4]: 7.94 nM
- Ki [5]: 15.8 nM

Next, values leading:

- Ki [1]: 0.1 nM
- Ki [2]: 6.3 nM
- Ki [3]: 100 nM
- Ki [4]: 0.79 nM
- Ki [5]: 100 nM
Structure (SMILES): C[C@@H](O)[C@@H]1NC(=O)[C@H](CCCCN)NC(=O)[C@@H](Cc2c[nH]c3ccccc23)NC(=O)[C@H](Cc2c[nH]c3ccccc23)NC(=O)[C@H](Cc2ccccc2)NC(=O)CCCCCCNC(=O)[C@H](Cc2ccccc2)NC1=O [L-362855] (cyclo([Ahp]FW[dW]KTF))

- Ki [1]: 12.6 nM
- Ki [2]: 100 nM
- Ki [3]: 794 nM
- Ki [4]: 126 nM
- Ki [5]: 100 nM
Structure (SMILES): CSCC[C@@H]1NC(=O)[C@@H](NC(=O)[C@H](CC(N)=O)NC(=O)[C@H](CC(C)C)NC(=O)[C@@H]2CCCN2C(=O)[C@H](CCCCN)NC(=O)[C@H](CO)NC(=O)[C@@H](NC(=O)[C@@H](NC(=O)[C@@H](NC(=O)[C@H](CC(N)=O)NC(=O)[C@@H](N)CC(=O)O)[C@@H](C)O)C(C)C)[C@@H](C)O)CSSC[C@@H](C(=O)O)NC(=O)[C@H](C)NC(=O)[C@H]([C@@H](C)O)NC(=O)[C@H](CCCN=C(N)N)NC(=O)[C@H](CO)NC(=O)[C@H](CCCCN)NC(=O)[C@H](Cc2c[nH]c3ccccc23)NC(=O)[C@H](Cc2ccccc2)NC(=O)[C@H](Cc2ccc(O)cc2)NC(=O)[C@H](CC(N)=O)NC1=O [SS-22] (H-DNTVTSKPLNCMNYFWKSRTAC-OH; disulfide 11-22)

- Ki [1]: 2.51 nM
- Ki [2]: 0.39 nM
- Ki [3]: 3.98 nM
- Ki [4]: 0.79 nM
- Ki [5]: 1.99 nM
Structure (SMILES): C[C@@H](O)[C@@H]1NC(=O)[C@H](Cc2ccc(O)cc2)NC(=O)[C@H]([C@@H](C)O)NC(=O)[C@H](CCCCN)NC(=O)[C@H](Cc2c[nH]c3ccccc23)NC(=O)[C@H](Cc2ccccc2)NC(=O)[C@H](Cc2ccccc2)NC(=O)[C@H](CC(N)=O)NC(=O)[C@H](CCCCN)NC(=O)CCCCC[C@@H](C(=O)O)NC(=O)[C@H](CO)NC1=O [CGP-23996] (KNFFWKTYTS[Asu]-OH; lactam N-11)

- Ki [1]: 5.01 nM
- Ki [2]: 100 nM
- Ki [3]: 100 nM
- Ki [4]: 1.58 nM
- Ki [5]: 100 nM
Structure (SMILES): CC(=O)N(CC(=O)NC1CSSCC(C(=O)NC(Cc2c[nH]c3ccccc23)C(N)=O)NC(=O)C(C(C)C)NC(=O)C(CCCCN)NC(=O)C(Cc2c[nH]c3ccccc23)NC(=O)C(Cc2ccc(O)cc2)NC1=O)Cc1ccccc1 (stereo not drawn) [RC 160II] (Ac-[Nphe]CYWKVCW-NH2; disulfide 2-7; configuration not given here)

- Ki [1]: 0.19 nM
- Ki [2]: 0.5 nM
- Ki [3]: 0.79 nM
- Ki [4]: 0.31 nM
- Ki [5]: 1 nM
Structure (SMILES): CSCC[C@H](NC(=O)[C@H](C)NC(=O)[C@@H]1CCCN1C(=O)[C@H](CC(N)=O)NC(=O)[C@@H](N)CO)C(=O)N[C@@H](C)C(=O)N1CCC[C@H]1C(=O)N[C@@H](CCCN=C(N)N)C(=O)N[C@@H](CCC(=O)O)C(=O)N[C@@H](CCCN=C(N)N)C(=O)N[C@@H](CCCCN)C(=O)N[C@@H](C)C(=O)NCC(=O)N[C@H]1CSSC[C@@H](C(=O)O)NC(=O)[C@H](CO)NC(=O)[C@H]([C@@H](C)O)NC(=O)[C@H](Cc2ccccc2)NC(=O)[C@H]([C@@H](C)O)NC(=O)[C@H](CCCCN)NC(=O)[C@H](Cc2c[nH]c3ccccc23)NC(=O)[C@H](Cc2ccccc2)NC(=O)[C@H](Cc2ccccc2)NC(=O)[C@H](CC(N)=O)NC(=O)[C@H](CCCCN)NC1=O [SS-25] (H-SNPAMAPRERKAGCKNFFWKTFTSC-OH; disulfide 14-25)
